Source: US7462716B2, “Statin derivatives” (Nicox S.A., priority 2003, dated 2008)
Where two headings read alike, the source gives them in different places. Marks after values point to notes of the source that are not given here.

Assays:
murine hindlimb ischemia = experiment: Murine hindlimb ischemia model (capillary density, clinical outcome); format: in vivo, CD1 male mice
Experimental: Angiogenesis is a primary response to local tissue hypoxia and is likely involved in the restoration of blood flow in ischemic diseases such as acute coronary syndromes and occlusive peripheral vascular disease. […] After 3 days, mice were anaesthetized and left hindlimb ischemia was induced by electro-coagulation of the upper part of femoral artery. Treatment was continued for the following 2 weeks after surgery. Systolic blood pressure was measured by tail cuff technique at 7 and 14 days. The clinical outcome at 14 days was determined by counting the number of necrotic or lost nails in the ischemic foot as well as the number of auto-amputation events. At 14 days from ischemia induction, hindlimbs of anaesthetized mice were perfusion-fixed, both adductors were coded and histologically processed. Capillary and arteriolar densities (ncap/mm^2 and nart/mm^2) were determined.

human platelets = experiment: U46619-induced platelet aggregation in vitro; format: cell-based
Experimental: Platelets are prominent components of the thrombi.
Compounds were incubated at 37° C. for 2 min before adding U46619, an aggregating agent, TxA2 analog. Aggregation was followed for 5 min and the maximal amplitude (cm) was measured. DMSO (0.05%) was used as vehicle. Compounds were tested at concentrations ranging from 50 to 200 μM.

[1] = test system: isolated rabbit thoracic aorta preparations; experiment: Vascular tone: relaxation of noradrenaline-precontracted isolated aortic rings; settings: Oryctolagus cuniculus; rabbit thoracic aorta rings contracted with noradrenaline 1 μM, functional endothelium; ± sem; read-out: IC50 (concentration giving 50% reversal of NA contraction)
Experimental: The ability of statin nitroderivatives to induce vasorelaxation in comparison to native statins, was tested in vitro in isolated rabbit thoracic aorta preparations (Wanstall J. C. et al., Br. J. Pharmacol., 134:463-472, 2001). Male New Zealand rabbits were anaesthetized with thiopental-Na (50 mg/kg, iv), sacrificed by exsanguinations and then the thorax was opened and the aorta dissected. Single ring preparations (4 mm in length) of thoracic aorta were set up in physiological salt solution (PSS) at 37° C. in small organ chambers (5 ml). The composition of PSS was (mM): NaCl 130, NaHCO3 14.9, KH2PO4 1.2, MgSO4 1.2, HEPES 10, CaCl2, ascorbic acid […] and glucose 1.1 (95% O2/5% CO2; pH 7.4). Each ring was mounted under 2 g passive tension in 5 ml organ bath. Isometric tension was recorded with a Grass transducer (Grass FT03) attached to a BIOPAC MP150 System. Preparations were allowed to equilibrate for 1 h, then contracted submaximally with noradrenaline (NA, 1 μM) and, when the contraction was stable, acetylcholine (ACh, 10 μM) was added. A relaxant response to ACh indicated the presence of a functional endothelium. When a stable precontraction was reached, a cumulative concentration-response curve to either of the vasorelaxant agents was obtained in the presence of a functional endothelium. Time intervals between different concentrations were based on the time needed to reach a full response. Moreover, the effect of the soluble guanylyl cyclase inhibitor ODQ (1-H-(1,2,4)-oxadiazol(4,3-a)quinoxalin-1-one) on the dilator responses elicited by the compounds was examined preincubating the aortic rings with ODQ (10 μM) for 20 min. Responses to vasorelaxing agents were measured from the plateau of NA contraction. The IC50 (concentration giving 50% reversal of NA contraction) was interpolated from the plots of relaxant-response vs log molar concentration of tested compound.
During the experimental period, the plateau obtained with NA was stable without significant spontaneous loss of contraction in the aortic rings.
As shown in the following Table 1, the nitroderivatives of the invention were able to induce relaxation in a concentration-dependent manner. Furthermore, in experiments performed in presence of ODQ (10 μM), the vasorelaxant responses to all the tested drugs were inhibited.
IC50 is the concentration which inhibits 50% of the response. Effects of Nitrostatin Derivatives on Inflammatory Pathways In Vitro

[2] = test system: U46619-induced pulmonary thromboembolism; experiment: Protection from U46619-induced pulmonary thromboembolism; format: in vivo, CD-1 mice; settings: mice, U46619 0.2 mg/kg iv
Experimental: 1 (equimolar doses) or vehicle. 1-3 hrs later the animals were injected into a tail vein with U46619 (0.2 mg/kg), a stable TxA2 analog. As previously described (Momi et al., Eur. J. Pharmacol. 397:177-185, 2000), this dose of the agonist caused 80 to 90% mortality within 3 min. in the control group. In each experimental session at least six animals per treatment group were tested; control groups were run at the beginning and at the end of every experimental session. Protection against agonist-induced thromboembolism was expressed as (1-Tdrug/Tsaline)×100, were Tdrug is the mortality rate in drug-treated mice, and Tsaline is the number of non surviving control animals which received […] only.
The results were expressed as percentage of protection from U46619-induced pulmonary thromboembolism as compared to the control group.

iNOS = experiment: Western blot of iNOS protein in LPS-stimulated RAW264.7 cells; format: cell-based
Experimental: (§1) The experiments were performed using RAW264.7 monocyte macrophage cell line. […] At the end of the incubation, the cells were harvested in lysis buffer and the protein content was measured. Western Blot of inducible iNOS and COX2 proteins (representatives of an ongoing inflammatory process) was performed. The obtained results reported in Table 2 are expressed as % reduction of optical density of each treatment vs. LPS-treated samples.

COX2 = experiment: Western blot of COX2 protein in LPS-stimulated RAW264.7 cells; format: cell-based
Experimental: as §1

Tissue factor (TF) = experiment: Tissue factor expression in LPS-stimulated blood mononuclear cells; format: cell-based; settings: 50 μM; human MNC, LPS 1 μg/ml, 3 h; mean ± SEM
Experimental: Tissue factor (TF) is a major regulator of homeostasis and thrombosis. […] MNC were obtained from fresh blood by density gradient (Ficoll-Hypaque) centrifugation and resuspended in serum-free RPMI medium at the concentration of 2−3×10^6/ml. […] After incubation for 3 h at 37° C., TF expression in MNC was assessed by 1) functional assay (Semeraro et al., 1983. Immunology; 50: 529-35) on intact cells; 2) immunological assay (Imubind, Instrumentation Laboratory, Milan) on Triton X-100 cell extracts; 3) RT-PCR (Rossiello et al. Thromb Haemost 2000; 84:453-59).

leukocyte adhesion = experiment: Ex vivo leukocyte adhesion to thrombin-stimulated arterial segments of dosed ApoE knockout mice; format: in vivo; settings: ApoE K/O mice, pravastatin 40 mg/kg po or equimolar dose daily for 5 days
Experimental: The interaction between leukocytes and the vascular endothelium is a crucial inflammatory step in the atherogenic process.
Leukocytes were isolated from spleen, centrifuged, RBCs lysed with water. Arterial segments prepared—aortic & thoracic regions opened longitudinally and pinned out luminal side up. Radiolabelled leukocytes (^51Cr-leukocytes) are incubated with thrombin-stimulated (10 UmL−1 for 10 min.) segments for 30 min. Segments are washed with medium and adhesion measured by gamma counter.

[3] = mice, 14 days after ischemia, in chow pravastatin 40 mg/kg or nitroderivative 48 mg/kg
[4] = 100 μM, RAW264.7, LPS 1 μg/ml 8 h
[5] = 10 μM, RAW264.7, LPS 1 μg/ml 16 h, negative = increase vs LPS

CC[C@H](C)C(=O)O[C@H]1C[C@H](O)C=C2C=C[C@H](C)[C@H](CCC(O)C[C@H](O)CC(=O)OCCCCO[N+](=O)[O-])[C@H]21 (relative stereo) [Compound of EX. 1, [1S-[1α(βS*,δS*),2α,6α,8β-(R*),8aα]]-1,2,6,7,8,8a-hexahydro-β,δ,6-trihydroxy-2-methyl-8-(2-methyl-1-oxobutoxy)-1-naphthaleneheptanoic acid 4-(nitrooxy)butyl ester]
clinical outcome in mice with hindlimb ischemia (murine hindlimb ischemia; 14 days, necrotic or lost nails, auto-amputation events): ameliorates clinical outcome
N capillaries/mm^2 in contralateral adductor muscle (murine hindlimb ischemia; [3]): 660 ± 40 N capillaries/mm^2
N capillaries/mm^2 in ischemic adductor muscle (murine hindlimb ischemia; [3]): 1116 ± 53^§§**^++ N capillaries/mm^2
IC50 (human platelets; Platelet, human gel filtered platelets, read-out: Platelet aggregation (GFP) IC50): 101 ± 10 µM
IC50 (human platelets; human platelet rich plasma, read-out: Platelet aggregation (PRP) IC50): 74 ± 7 µM
IC50 [1]: 2.4 ± 0.6 µM
Antithrombotic activity (%) 1-h before challenge ([2]; 12 mg/kg ip): 30* %
Antithrombotic activity (%) 3-h before challenge ([2]; 12 mg/kg ip): 40* %
Antithrombotic activity (%) 1-h before challenge ([2]; 24 mg/kg ip): 40*+ %
Antithrombotic activity (%) 3-h before challenge ([2]; 24 mg/kg ip): 55*+ %
iNOS (% reduction vs LPS) (iNOS; [4]): 55.2 ± 11.8%
COX2 (% reduction vs LPS) (COX2; [4]): 74.9 ± 4.4%
TF in LPS-stimulated MNC: Activity (Tissue factor (TF)): 16 ± 4.9 AU/10^6 cells
TF in LPS-stimulated MNC: Antigen (Tissue factor (TF)): 0.65 ± 0.11 ng/mg protein
Leukocyte adhesion (%) (thoracic aorta) (leukocyte adhesion): 9.3 ± 3 %

CC(C)n1c(/C=C/[C@@H](O)C[C@@H](O)CC(=O)OCCCCO[N+](=O)[O-])c(-c2ccc(F)cc2)c2ccccc21 (relative stereo) [Compound of EX. 3, [R*,S*-(E)]-7-[3-(4-fluorophenyl)-1-(1-methylethyl)-1H-indol-2-yl]-3,5-dihydroxy-6-heptanoic acid 4-(nitrooxy)butyl ester]
IC50 [1]: 13.4 ± 3.5 µM
iNOS (% reduction vs LPS) (iNOS; [5]): 44.8 ± 11.9%
COX2 (% reduction vs LPS) (COX2; [5]): 53.9 ± 6.1%

CC(C)n1c(/C=C/[C@@H](O)C[C@@H](O)CC(=O)OCc2ccc(CO[N+](=O)[O-])cc2)c(-c2ccc(F)cc2)c2ccccc21 (relative stereo) [Compound of EX. 4, [R*,S*-(E)]-7-[3-(4-fluorophenyl)-1-(1-methylethyl)-1H-indol-2-yl]-3,5-dihydroxy-6-heptanoic acid 4-(nitrooxymethyl)benzyl ester]
IC50 [1]: 8.7 ± 3.3 µM
iNOS (% reduction vs LPS) (iNOS; [5]): 22.4 ± 9.6%
COX2 (% reduction vs LPS) (COX2; [5]): 19.4 ± 6.5%

CC(C)c1c(C(=O)Nc2ccccc2)c(-c2ccccc2)c(-c2ccc(F)cc2)n1CC[C@@H](O)C[C@@H](O)CC(=O)O [Atorvastatin, atorvastatin, reference compound]
iNOS (% reduction vs LPS) (iNOS; [5]): 20 ± 14%

CC(C)c1c(C(=O)Nc2ccccc2)c(-c2ccccc2)c(-c2ccc(F)cc2)n1CC[C@@H](O)C[C@@H](O)CC(=O)OCCCCO[N+](=O)[O-] [Compound of EX. 7, (βR,δR)-2(4-fluorophenyl)-β,δ-dihydroxy-5-(1-methylethyl)-3-phenyl-4-[(phenylamino)carbon-yl]-1H-pyrrole-1-heptanoic acid 4-(nitrooxy)butyl ester]
iNOS (% reduction vs LPS) (iNOS; [5]): 45 ± 9%

CC(C)n1c(/C=C/C(O)CC(O)CC(=O)O)c(-c2ccc(F)cc2)c2ccccc21 (stereo not shown) [Fluvastatin, fluvastatin, reference compound]
IC50 [1]: > 30 µM
iNOS (% reduction vs LPS) (iNOS; [5]): −14.8 ± 5.9%
COX2 (% reduction vs LPS) (COX2; [5]): −2.8 ± 3.7%

CC[C@H](C)C(=O)O[C@H]1C[C@H](O)C=C2C=C[C@H](C)[C@H](CC[C@@H](O)C[C@@H](O)CC(=O)O)[C@H]21 [Pravastatin, pravastatin, reference compound]
N capillaries/mm^2 in contralateral adductor muscle (murine hindlimb ischemia; [3]): 736 ± 40 N capillaries/mm^2
IC50 [1]: > 30 µM
Antithrombotic activity (%) 1-h before challenge ([2]; 10 mg/kg ip): 15%
Antithrombotic activity (%) 3-h before challenge ([2]; 10 mg/kg ip): 10%
Antithrombotic activity (%) 1-h before challenge ([2]; 20 mg/kg ip): 25%
Antithrombotic activity (%) 3-h before challenge ([2]; 20 mg/kg ip): 20%
iNOS (% reduction vs LPS) (iNOS; [4]): 4.7 ± 3.6%
COX2 (% reduction vs LPS) (COX2; [4]): 26.9 ± 7.9%
TF in LPS-stimulated MNC: Activity (Tissue factor (TF)): 189 ± 37.6 AU/10^6 cells
TF in LPS-stimulated MNC: Antigen (Tissue factor (TF)): 4.4 ± 1.3 ng/mg protein
Leukocyte adhesion (%) (thoracic aorta) (leukocyte adhesion): 23.0 ± 6%
